Our source for the Percent control, remaining activity and remaining binding values is paper PMC4858680, “A platinum-based hybrid drug design approach to circumvent acquired resistance to molecular targeted tyrosine kinase inhibitors” (Scientific Reports, 2016).

The target of one test is T1, EPHA6 (Homo sapiens, UniProt Q9UF33).
T1 sequence (Q9UF33 23-1036): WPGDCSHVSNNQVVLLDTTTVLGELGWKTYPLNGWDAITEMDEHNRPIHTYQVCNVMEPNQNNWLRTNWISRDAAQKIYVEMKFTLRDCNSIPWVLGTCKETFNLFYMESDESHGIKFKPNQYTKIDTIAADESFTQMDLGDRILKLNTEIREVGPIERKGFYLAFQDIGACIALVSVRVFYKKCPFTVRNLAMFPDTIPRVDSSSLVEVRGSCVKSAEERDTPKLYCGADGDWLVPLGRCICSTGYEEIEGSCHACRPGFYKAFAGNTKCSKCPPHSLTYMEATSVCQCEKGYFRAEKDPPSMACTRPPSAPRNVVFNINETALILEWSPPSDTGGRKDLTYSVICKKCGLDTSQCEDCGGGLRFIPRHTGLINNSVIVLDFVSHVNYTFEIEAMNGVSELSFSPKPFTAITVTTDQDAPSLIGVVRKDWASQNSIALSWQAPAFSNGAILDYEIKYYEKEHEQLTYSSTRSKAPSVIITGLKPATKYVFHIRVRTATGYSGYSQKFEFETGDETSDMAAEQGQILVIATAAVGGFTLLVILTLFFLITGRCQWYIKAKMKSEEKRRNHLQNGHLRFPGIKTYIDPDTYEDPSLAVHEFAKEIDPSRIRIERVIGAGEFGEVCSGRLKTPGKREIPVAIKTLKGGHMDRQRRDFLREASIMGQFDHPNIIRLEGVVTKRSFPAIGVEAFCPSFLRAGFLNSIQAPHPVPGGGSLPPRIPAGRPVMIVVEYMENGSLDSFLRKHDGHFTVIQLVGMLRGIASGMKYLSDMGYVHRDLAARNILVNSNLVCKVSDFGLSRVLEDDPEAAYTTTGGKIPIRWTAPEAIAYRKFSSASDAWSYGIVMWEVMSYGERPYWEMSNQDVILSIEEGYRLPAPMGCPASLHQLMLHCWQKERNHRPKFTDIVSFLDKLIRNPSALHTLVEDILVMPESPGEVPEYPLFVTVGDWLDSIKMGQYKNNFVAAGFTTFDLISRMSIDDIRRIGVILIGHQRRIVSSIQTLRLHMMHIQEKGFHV
The note with it: 10 μM.

The target in another test is T2, EPHB4 (Homo sapiens, UniProt P54760).
T2 sequence (P54760 16-987): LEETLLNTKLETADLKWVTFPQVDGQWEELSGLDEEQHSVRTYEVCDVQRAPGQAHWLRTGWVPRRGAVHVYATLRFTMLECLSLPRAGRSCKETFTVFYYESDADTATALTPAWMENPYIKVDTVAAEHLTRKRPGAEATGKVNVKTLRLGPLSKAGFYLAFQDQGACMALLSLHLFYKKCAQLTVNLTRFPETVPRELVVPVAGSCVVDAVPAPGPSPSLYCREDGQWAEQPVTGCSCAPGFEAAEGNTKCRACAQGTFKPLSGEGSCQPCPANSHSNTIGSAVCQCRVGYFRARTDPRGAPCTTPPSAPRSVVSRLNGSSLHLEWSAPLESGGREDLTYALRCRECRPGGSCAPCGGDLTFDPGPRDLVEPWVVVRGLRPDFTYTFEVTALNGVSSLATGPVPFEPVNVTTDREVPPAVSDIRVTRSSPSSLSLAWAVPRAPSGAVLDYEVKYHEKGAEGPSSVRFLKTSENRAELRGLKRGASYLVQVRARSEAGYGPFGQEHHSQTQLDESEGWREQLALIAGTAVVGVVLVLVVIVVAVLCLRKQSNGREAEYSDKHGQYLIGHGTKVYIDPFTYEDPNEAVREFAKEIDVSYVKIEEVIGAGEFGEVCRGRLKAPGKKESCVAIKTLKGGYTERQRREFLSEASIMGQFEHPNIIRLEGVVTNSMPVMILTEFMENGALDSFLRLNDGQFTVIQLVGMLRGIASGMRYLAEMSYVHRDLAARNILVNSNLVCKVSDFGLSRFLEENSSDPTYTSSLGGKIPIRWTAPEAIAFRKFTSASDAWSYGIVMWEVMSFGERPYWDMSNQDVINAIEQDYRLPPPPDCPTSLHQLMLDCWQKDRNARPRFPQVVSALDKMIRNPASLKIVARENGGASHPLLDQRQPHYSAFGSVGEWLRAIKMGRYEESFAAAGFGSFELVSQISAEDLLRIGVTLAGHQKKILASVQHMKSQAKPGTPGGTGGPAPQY
The following applies: 10 μM.

The next test concerns the target T3, FLT3(N841I) (Homo sapiens, UniProt P36888, N841I).
T3 sequence (P36888 27-993 N841I): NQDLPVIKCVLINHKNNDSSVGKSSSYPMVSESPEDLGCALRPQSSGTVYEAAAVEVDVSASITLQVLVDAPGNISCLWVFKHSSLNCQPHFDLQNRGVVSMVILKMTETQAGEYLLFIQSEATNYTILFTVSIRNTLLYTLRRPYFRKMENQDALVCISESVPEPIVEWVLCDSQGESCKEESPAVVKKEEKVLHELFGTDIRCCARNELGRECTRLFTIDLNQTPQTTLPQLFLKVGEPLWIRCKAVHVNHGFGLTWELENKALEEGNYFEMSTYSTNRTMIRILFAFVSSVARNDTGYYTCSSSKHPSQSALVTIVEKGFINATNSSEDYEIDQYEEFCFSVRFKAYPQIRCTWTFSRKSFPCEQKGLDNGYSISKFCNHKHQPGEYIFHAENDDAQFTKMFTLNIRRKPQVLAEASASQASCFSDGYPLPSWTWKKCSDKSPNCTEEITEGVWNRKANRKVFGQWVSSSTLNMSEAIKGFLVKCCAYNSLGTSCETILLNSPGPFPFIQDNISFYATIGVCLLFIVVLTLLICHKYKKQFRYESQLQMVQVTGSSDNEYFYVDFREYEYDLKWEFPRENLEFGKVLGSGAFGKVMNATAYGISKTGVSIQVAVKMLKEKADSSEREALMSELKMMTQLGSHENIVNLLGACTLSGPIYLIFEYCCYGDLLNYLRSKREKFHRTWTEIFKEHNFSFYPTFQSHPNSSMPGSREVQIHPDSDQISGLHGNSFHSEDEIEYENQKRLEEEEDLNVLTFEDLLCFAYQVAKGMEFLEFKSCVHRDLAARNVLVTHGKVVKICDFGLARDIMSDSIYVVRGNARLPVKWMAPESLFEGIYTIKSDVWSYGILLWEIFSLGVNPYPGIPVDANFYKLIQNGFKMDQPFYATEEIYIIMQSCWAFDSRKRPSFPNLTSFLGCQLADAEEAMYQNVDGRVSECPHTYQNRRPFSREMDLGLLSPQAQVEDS

The target in a further test is T4, DDR1 (Homo sapiens, UniProt Q08345).
T4 construct: purchased DiscoveRx KINOMEscan
T4 sequence (Q08345 19-913): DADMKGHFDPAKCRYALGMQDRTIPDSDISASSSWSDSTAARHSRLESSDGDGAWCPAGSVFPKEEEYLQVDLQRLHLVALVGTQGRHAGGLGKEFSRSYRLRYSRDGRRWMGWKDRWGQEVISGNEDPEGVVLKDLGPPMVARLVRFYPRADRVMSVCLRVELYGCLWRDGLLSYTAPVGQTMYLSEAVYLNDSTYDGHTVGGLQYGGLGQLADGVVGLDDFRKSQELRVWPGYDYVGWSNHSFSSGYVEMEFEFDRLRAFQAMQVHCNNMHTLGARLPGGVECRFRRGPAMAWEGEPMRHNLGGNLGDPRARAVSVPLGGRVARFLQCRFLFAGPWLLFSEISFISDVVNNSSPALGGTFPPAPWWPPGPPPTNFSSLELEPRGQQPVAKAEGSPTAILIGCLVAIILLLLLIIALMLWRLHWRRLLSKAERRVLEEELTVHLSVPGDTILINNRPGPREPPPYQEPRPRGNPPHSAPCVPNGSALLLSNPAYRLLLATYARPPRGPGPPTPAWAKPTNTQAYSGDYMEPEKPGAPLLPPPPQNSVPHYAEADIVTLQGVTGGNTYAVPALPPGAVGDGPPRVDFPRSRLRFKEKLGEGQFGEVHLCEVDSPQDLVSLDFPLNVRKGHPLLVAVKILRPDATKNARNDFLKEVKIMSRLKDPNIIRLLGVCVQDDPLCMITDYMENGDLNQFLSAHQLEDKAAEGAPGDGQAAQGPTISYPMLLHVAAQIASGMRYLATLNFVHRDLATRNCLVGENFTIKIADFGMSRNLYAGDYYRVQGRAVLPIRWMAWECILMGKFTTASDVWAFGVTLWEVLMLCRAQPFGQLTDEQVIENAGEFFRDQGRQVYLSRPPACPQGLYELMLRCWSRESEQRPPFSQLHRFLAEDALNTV
Type of test: binding. The note with it: for Percent control: 10 μM.

In a further test the target is KIT(L576P) (Homo sapiens, UniProt P10721, L576P). Put plainly: biochemical. The note with it: read-out: Percent control.
KIT(L576P), sequence (P10721 26-976 L576P): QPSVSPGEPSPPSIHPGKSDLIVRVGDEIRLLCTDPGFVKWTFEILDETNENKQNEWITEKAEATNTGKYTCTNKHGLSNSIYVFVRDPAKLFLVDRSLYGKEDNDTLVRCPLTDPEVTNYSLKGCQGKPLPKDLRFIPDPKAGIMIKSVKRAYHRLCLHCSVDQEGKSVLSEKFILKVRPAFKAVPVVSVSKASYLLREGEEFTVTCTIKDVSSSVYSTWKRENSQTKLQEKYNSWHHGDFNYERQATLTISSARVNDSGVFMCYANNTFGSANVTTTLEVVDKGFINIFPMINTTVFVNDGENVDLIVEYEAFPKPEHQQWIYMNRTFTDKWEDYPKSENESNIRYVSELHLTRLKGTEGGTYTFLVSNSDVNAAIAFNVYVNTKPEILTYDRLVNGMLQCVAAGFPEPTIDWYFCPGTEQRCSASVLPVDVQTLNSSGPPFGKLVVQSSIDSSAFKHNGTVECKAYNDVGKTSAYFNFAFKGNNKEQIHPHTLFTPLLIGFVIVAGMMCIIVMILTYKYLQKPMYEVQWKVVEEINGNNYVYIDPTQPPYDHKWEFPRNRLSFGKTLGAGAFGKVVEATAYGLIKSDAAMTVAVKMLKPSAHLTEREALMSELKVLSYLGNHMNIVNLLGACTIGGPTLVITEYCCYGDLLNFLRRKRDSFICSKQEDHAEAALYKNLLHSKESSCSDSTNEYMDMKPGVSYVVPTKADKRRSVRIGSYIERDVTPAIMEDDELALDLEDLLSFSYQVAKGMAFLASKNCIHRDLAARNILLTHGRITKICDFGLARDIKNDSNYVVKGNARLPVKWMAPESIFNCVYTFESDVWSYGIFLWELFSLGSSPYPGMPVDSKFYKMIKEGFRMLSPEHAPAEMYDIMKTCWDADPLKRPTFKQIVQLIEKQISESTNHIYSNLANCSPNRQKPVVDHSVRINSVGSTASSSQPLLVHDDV

Like-named read-outs stand apart in the source and are kept apart here.

For the molecule `Cc1ccc(NC(=O)c2ccc(CN3CCN(C)CC3)cc2)cc1Nc1nccc(-c2cccnc2)[n+]1[Pt-2]1([Cl])[NH2+]C2CCCCC2[NH2+]1` (stereo not drawn) [1b, oxaliplatin-imatinib], the Percent control at EPHA6 is 90%; on EPHB4, 100%; at FLT3(N841I) (FLT3(N841I), 10 μM) it was 72%.
As to `C#Cc1cccc(Nc2c3cc(OCCOC)c(OCCOC)cc3nc[n+]2[Pt@SP2-2]([NH3+])([NH3+])[Cl])c1` [2a, cisplatin-erlotinib], the Percent control was 74% at DDR1, 71% at EPHA6, 91% on EPHB4 and 70 on FLT3(N841I).
Taken in the same sequence, the figures for `COc1cc2c(Nc3ccc(Br)cc3F)[n+]([Pt-2]3([Cl])[NH2+]C4CCCCC4[NH2+]3)cnc2cc1OCC1CCN(C)CC1` (stereo not drawn) [3b, oxaliplatin-vandetanib] were 0.3%, 6.3%, 35% and 18.
As for `C#Cc1cccc(Nc2ncnc3cc(OCCOC)c(OCCOC)cc23)c1` [Erlotinib], the remaining activity at 10 µM at KIT(L576P) was 25.9%.
With `Cc1ccc(NC(=O)c2ccc(CN3CCN(C)CC3)cc2)cc1Nc1nccc(-c2cccnc2)n1` [Imatinib, reference compound], the Percent control on EPHA6 came to 100%; at EPHB4, 100%; at FLT3(N841I) (FLT3(N841I), 10 μM), 100%. Also, the remaining activity at 10 µM on KIT(L576P) was found to be 0.1%.
On to `COc1cc2c(Nc3ccc(Br)cc3F)ncnc2cc1OCC1CCN(C)CC1` [Vandetanib, reference compound], for which the remaining binding at 10 µM at DDR1 (read-out: Percent control) worked out at 0.1%. In addition, the remaining activity at 10 µM at KIT(L576P) came out at 1.4%.
